Here are results for one compound from US20140106387A1, “METHOD FOR CONTROLLING NAD(P)/NAD(P)H RATIO BY OXIDOREDUCTASE” (MD BIOALPHA CO., LTD., priority 2006, published 2014).

A short description of assay [1]: liver and muscle histology (H&E, EM) in ob/ob mice. Type of assay: in vivo, mouse. As to conditions: 56 days. The method, then:
The removed tissues were cut into a proper size, fixed in 10% formalin, washed with water, and embedded in paraffin to prepare blocks, according to a conventional method. The thus-prepared blocks were sectioned into a 4 μm thickness and subjected to hematoxylin and eosin (H&E) staining for observation of general changes.
For observation of cellular microstructures, the removed tissues were sliced into a size of 1 mm^3, pre-fixed in 2.5% glutaraldehyde (0.1M PBS, pH 7.4, 4° C.) for 2 to 4 hours, washed, and post-fixed in a 1% osmium tetroxide solution for 2 hours. Then, according to a conventional method, the tissues were dehydrated with serial concentrations of ethanol and the solvent was replaced with propylene oxide. The tissues were embedded in an epoxy resin mixture, and the embedded tissues were subjected to thermal polymerization to prepare blocks. The thus-prepared blocks were sectioned into a thickness of 0.5 to 1 μm using a ultramicrotome and stained with toludine blue. Observation sites were selected under a light microscope and the tissues were ultrasectioned to a thickness of 60 to 70 nm. The ultrasectioned specimens were subjected to dual staining of uranyl acetate and lead citrate and were observed under a transmission electron microscope (H-600, Hitachi, Japan) at an accelerating voltage of 75 kV.
In order to examine fat accumulation in the liver tissue, animals were laparotomized 56 days after administration of pyran-1,2-naphthoquinone, and H&E staining and EM examination were performed on the liver tissue.

Assay [2] is described as follows: mean body temperature after cold exposure. As to conditions: ambient temperature of 4 for 12 hours. Type of assay: in vivo, mouse.
Assay [3] has as its system HEK293 cells. As to the kind of experiment: mitochondrial oxygen consumption in HEK293 cells. Type of assay: cell-based, human. From the text: (§1) FIG. 22 is a graph showing monitoring results of mitochondrial oxygen consumption using a Clark-type oxygen electrode;
In assay [4] the test system is HEK293 cells. As to the kind of experiment: calcium influx in NQO1-deficient HEK293 cells. Type of assay: cell-based, human. The method, then:
Cells were grown on a coverslip in a culture medium for 24 hours, maintained in an RPMI 1640 serum-free medium for 1 hour, and pretreated with a calcium indicator Fluo-4 (5 μM) for 30 min. After pretreatment, the coverslip was mounted on a slide glass. […] Using an LSM Image Browser program (Carl Zeiss), 300 images taken for 10 min every 2 seconds were sorted and ordered in a time sequence and plotted on a graph.

For a further assay, the system named is HepG2 cells. Kind of assay: mitochondrial oxygen consumption (Clark-type oxygen electrode) in HepG2 cells. Type of assay: cell-based, human.
From the text: as §1

A short description of assay [5]: swimming test of physical endurance. Type of assay: in vivo, mouse. As to conditions: C57BL/6 DIO mice, single administration, 3 hours later. The method, then:
This Example was intended to measure a difference in physical endurance of mice through a swimming test. For this purpose, water was placed in a cylindrical trough having a diameter of 9.5 cm and a height of 25 cm, and pyrano-1,2-naphthoquinone was administered to C57BL/6 DIO mice. 3 hours later, a sample-administered group and a control group were placed simultaneously into each cylindrical trough for measurement, and physical endurance of each group was measured and compared.

Assay [6] can be described thus: AMP/ATP, NAD+/NADH and NADP+/NADPH ratios in liver after intravenous administration. Type of assay: in vivo, mouse. As to conditions: Lean mice.
In another assay the test system is AMPK. As to the kind of experiment: AMPK phosphorylation in HEK293 cells (Western blot). Type of assay: cell-based, human. The settings on record: 10 μM, 30 min. The method, then:
Cells were lysed in SDS sample buffer (62.5 mM Tris HCl (pH 6.8), 6% (w/v) SDS, 30% glycerol, 125 mM DTT, and 0.03% (w/v) bromophenol blue). The total cell lysates were boiled at a temperature of 100° C. for 5 min and electrophoresed on a sodium dodecyl sulfate-polyacrylamide gel, and proteins were transferred on a nitrocellulose membrane. The membrane was reacted in TBS (5% (w/v) milk and 0.1% Tween 20) for 1 hour, and then reacted with primary antibodies for 2 hours. Next, the membrane was developed using HRP-conjugated secondary antibodies (Phototope-HRP Western Blot Detection Kit, New England Biolabs, Beverly, Mass.).
In order to investigate the importance of an NQO1 protein in phosphorylation of AMP kinase, HepG2, MCF-7 and HEK293 cells were seeded onto 60 mm plates at a density of 1×10^6 cells/plate. After growing the cells for 24 hours, the culture medium was replaced with a serum-free medium, and cells were treated with pyrano-1,2-naphthoquinone (10 μM) for 30 min, respectively, in combination with a control group (DMSO). Cells were lysed in RIPA buffer and amounts of all proteins were quantified using a spectrophotometer, and 50 μg of the protein was subjected to electrophoresis. AMP kinase phosphorylation was examined using Anti-AMPK and Anti-pT172-AMPK, whereas the NQO1 protein was assayed using Anti-NQO1. From the fact that AMP kinase phosphorylation by pyran-1,2-naphthoquinone (10 μM) was not observed in HEK293 cells, it can be seen that the NQO1 protein is crucial for phosphorylation of AMP kinase.
In order to examine that an activity of NQO1 is important for the phosphorylation of AMP kinase, HEK293 cells were seeded onto a 6-well plate at a density of 1×10^5 cells/well, cultured for 24 hours, and transfected with pSG5-HA-NQO1 (500 ng) and pSG5-HA-NOQ1-C609T (500 ng) plasmids. After 24 hours, the culture medium was replaced with a serum-free medium, and the cells were treated with pyrano-1,2-naphthoquinone (10 μM) and AICAR (2 mM) for 30 min, in combination with a control (DMSO). AMP kinase phosphorylation were assayed using Anti-AMPK and Anti-pT172-AMPK, whereas transfected NQO1 was assayed using Anti-HA.
In addition, AMPK phosphorylation/activation was not promoted in HEK293 cells, except for HEK293 cells transfected with wild type NQO1.
Background: In western blotting, separated proteins are transferred to a membrane and probed.

For the compound `CC1(C)CCC2=C(O1)c1ccccc1C(=O)C2=O` [βL, 2,2-Dimethyl-3,4-dihydro-2H-benzo[h]chromene-5,6-dione], in assay [1], the “EM examination on liver tissues” value was “remarkably decreased fat vacuoles and glycogen stores”; the “EM examination on muscle tissue of animal limbs” value is given as “recovery of normal mitochondrial morphology”; the “H&E staining on liver tissue” value was “almost all fat vacuoles have disappeared”. Moreover, in assay [2], the “mean body temperature after cold exposure” value was “more resistant to the cold”. Further, the increased oxygen consumption entry in the assay on HEK293 cells [3] is on record as “not observed”. Moreover, in the assay with HEK293 cells [4], the calcium peak entry is reported as “not appeared”. For the same compound, in the assay on HepG2 cells, the mitochondrial oxygen consumption entry is reported as “increased”. Further, in assay [5], the “increase of swimming duration compared to control” value is given as “two-fold”. In assay [6], the “changes in the AMP/ATP ratio and NAD+/NADP ratio compared with control” value is given as “less changes”. Besides, the AMP kinase phosphorylation result in the assay on AMPK (HEK293 cells (no NQO1)) is “not promoted”. In addition, the AMP kinase phosphorylation entry in the assay on AMPK (HEK293 cells (no NQO1), listed as pyran-1,2-naphthoquinone) was “not observed”. Moreover, the AMP kinase phosphorylation result in the assay on AMPK (HEK293 transfected with NQO1-C609T having no NQO1 activity) is on record as “no phosphorylation of AMP kinase”.
